The values below come from publication PMC6352943, “Novel pyrazolo[3,4-d]pyrimidines: design, synthesis, anticancer activity, dual EGFR/ErbB2 receptor tyrosine kinases inhibitory activity, effects on cell cycle profile and caspase-3-mediated apoptosis” (Journal of Enzyme Inhibition and Medicinal Chemistry, 2019).

In one data set the test system is ACHN. Put plainly: MTT cell viability assay. Type of data set: cell-based, human. Particulars: Homo sapiens; ACHN renal cancer, MTT, 48 h, mean ± SD of three experiments; read-out: IC50 (concentration required for 50% inhibition of cell viability). On the procedure:
(§1) Cell Line cells were obtained from American Type Culture Collection, cells were cultured using Dulbecco's Modified Eagle's medium (DMEM) (Invitrogen/Life Technologies) supplemented with 10% foetal bovine serum (FBS) (Hyclone), 10 μg/mL of insulin (Sigma), and 1% penicillin-streptomycin. All of the other chemicals and reagents were from Sigma, or Invitrogen. Plate cells (cells density 1.2 – 1.8 × 10,000 cells/well) in a volume of 100 µL complete growth medium and 100 μL of the tested compound per well in a 96-well plate for 24 h before the MTT assay.
(§2) Remove culture medium to a centrifuge tube. […] Add 2.0 to 3.0 ml of Trypsin EDTA solution to flask and observe cells under an inverted microscope until cell layer is dispersed. Add 6 to 8 ml of complete growth medium and aspirate cells by gently pipetting. Transfer the cell suspension to the centrifuge tube with the medium and centrifuge for 5 to 10 min. Discard the supernatant. Resuspend the cell pellet in fresh growth medium. Add appropriate aliquots of the cell suspension to new culture vessels. Incubate cultures at 37 °C for 24 h. After treatment of cells with the serial concentrations of the compound to be tested incubation is carried out for 48 h at 37 °C, then the plates are to be examined under the inverted microscope and proceed for the MTT assay.
(§3) The 3–(4, 5-dimethylthiazol-2-yl)-2,5-diphenyltetrazolium bromide (MTT) method[30] of monitoring in vitro cytotoxicity is well suited for use with multiwell plates. The assessment of cell population growth is based on the capability of living cells to reduce the yellow product MTT to a blue product, formazan, by a reduction reaction occurring in the mitochondria. The five cell lines were incubated for 24 h in 96-microwell plates. The number of living cells in the presence or absence (control) of the various test compounds is directly proportional to the intensity of the blue colour, measured by spectrophotometry using (ROBONIK P2000 Spectrophotometer) at a wavelength of 570 nm. Measure the background absorbance of multiwell plates at 690 nm and subtract from the 570 nm measurement. Five concentrations ranging from 0.01 μM to 100 μM (with semi-log decrease in concentration) were tested for each of the compounds under study. Each experiment was carried out in triplicate. The IC50 values [the concentration required for 50% inhibition of cell viability] were calculated using sigmoidal dose response curve-fitting models.
A general note: Formazan colour is commonly taken as a measure of viable cells.

The next data set deals with NCI-H460. In words: MTT cell viability assay. Type of data set: cell-based, human. Particulars: Homo sapiens; NCI-H460 lung cancer, MTT, 48 h, mean ± SD of three experiments; read-out: IC50 (concentration required for 50% inhibition of cell viability). On the procedure: as §1, §2, §3
Another data set relates to OVCAR-4. In words: MTT cell viability assay. The format is cell-based, human. The following applies: Homo sapiens; OVCAR-4 ovarian cancer, MTT, 48 h, mean ± SD of three experiments; read-out: IC50 (concentration required for 50% inhibition of cell viability). How it is done: as §1, §2, §3

With `C#Cc1cccc(Nc2ncnc3cc(OCCOC)c(OCCOC)cc23)c1` [Erlotinib, reference compound], the IC50 in the data set on ACHN is 12.4 ± 1.88 µM; in the data set with NCI-H460, 8.36 ± 0.69 µM; with OVCAR-4, 2.79 ± 0.41 µM.

What is called melting point is the temperature of the solid-liquid transition. For `Cc1nn(-c2ccc(F)cc2)c2ncnc(NN=Cc3ccncc3)c12` [Compound 10d, 1–(4-Fluorophenyl)-3-methyl-4–(2-(pyridin-4-yl-methylidene) hydrazinyl)-1H-pyrazolo[3,4-d]pyrimidine], the melting point lay within 262 to 264 °C.
